Data: patent US20250214991A1 (Oncopia Therapeutics, Inc. d/b/a/ SK Life Science Labs, priority 2022, published 2025)

Legend:
IKZF2 = IKZF2 (Homo sapiens (Human), UniProt Q96SW2+Q9UKS7); experiment: In vitro IKZF2 HiBit Assay (HEK293T Flp-in-HiBiT cells); type: cell-based; conditions: HEK293T Flp-in-HiBiT cells, 6 hrs incubation; for DC50: read-out: IKZF2 HiBit DC50; for Dmax: HEK-293T, read-out: IKZF2 HiBit Dmax (%)
Description: In Vitro IKZF2 HiBit Assay
The HiBiT protein tagging system was applied to modified HEK293T Flp-in-HiBiT cells (polyclone) via a CRISPR/Cas9-mediated insertion of the HiBiT peptide tag (Promega™) to the N-terminus of the IKZF2 gene locus (Neon™ transfection system). Test and reference compounds are diluted from 1 mM at 3 folds for 11 doses. 25 nL of diluted compound is transfered to assay plates (Corning3570) using ECHO550, the final DMSO concentration @ 0.1%. The cells are seeded in 3000/25 μL/well to compound plates. It is then incubated for 6 hrs in TC incubator. The amount of Nano-Glo® HiBiT lytic reagent needed to perform the desired experiments is calculated. The Nano-Glo® HiBiT lytic reagent is brought to room temperature. The LgBiT protein is diluted to 1:100 and the Nano-Glo® HiBiT lytic substrate is diluted to 1:50 into an appropriate volume of room temperature Nano-Glo® HiBiT lytic buffer. 15 μL of the detection reagent (or without LgBiT) is dispensed to corresponding well according to the layout. The plate is then shaked for 10 mins at room temperature. After briefly centrifuge, the plate is read on Envision. At the indicated timepoints, the Nano-Glo® HiBiT lytic detection system (Promega™) was utilized for detecting bioluminescence of the HiBiT tag in treated cells: abundance of the tag is proportionate to the level of luminescence. Following normalization to DMSO, dose-response curves were plotted (GraphPad Prism) to determine the concentration points at which 50% of HiBiT-Helios degradation was achieved by each compound. The extent of degradation (range of luminescence) from the highest to lowest concentration points was calculated to determine the Dmax.
(§1) DC50, A: <1 nM; B: 1-10 nM; C: 10-100 nM; D: 100-1000 nM; E: 1000-10000 nM; F: >10,000 nM. Dmax, A: >80%; B: 60-80%; C: 40-60%; D: 20-40%; E: <20%.

IKZF1 = IKZF1 (Homo sapiens (Human), UniProt Q13422+Q96SW2); experiment: In vitro IKZF1 HiBit Assay (HEK293T Flp-in-HiBiT-IKZF1 stable cell line); type: cell-based; conditions: HEK293T Flp-in-HiBiT-IKZF1 stable cell line, 6 hrs incubation; for DC50: read-out: IKZF1 HiBit DC50; for Dmax: HEK-293T, read-out: IKZF1 HiBit Dmax (%)
Sequence of IKZF1 (Q13422 whole entry): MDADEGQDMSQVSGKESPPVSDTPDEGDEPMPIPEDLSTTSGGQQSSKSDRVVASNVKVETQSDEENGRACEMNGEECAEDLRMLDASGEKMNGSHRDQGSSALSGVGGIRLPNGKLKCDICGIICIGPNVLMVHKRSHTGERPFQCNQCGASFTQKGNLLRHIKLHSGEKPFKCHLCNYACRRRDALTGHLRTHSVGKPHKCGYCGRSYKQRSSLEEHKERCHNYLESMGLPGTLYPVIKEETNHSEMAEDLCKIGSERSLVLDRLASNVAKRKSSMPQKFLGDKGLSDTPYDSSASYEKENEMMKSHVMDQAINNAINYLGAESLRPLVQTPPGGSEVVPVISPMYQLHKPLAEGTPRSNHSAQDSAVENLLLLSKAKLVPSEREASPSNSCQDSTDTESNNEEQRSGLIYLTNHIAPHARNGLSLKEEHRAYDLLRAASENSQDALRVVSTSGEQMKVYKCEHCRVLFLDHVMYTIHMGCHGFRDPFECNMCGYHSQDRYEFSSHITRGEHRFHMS
Sequence of IKZF1 (Q96SW2 whole entry): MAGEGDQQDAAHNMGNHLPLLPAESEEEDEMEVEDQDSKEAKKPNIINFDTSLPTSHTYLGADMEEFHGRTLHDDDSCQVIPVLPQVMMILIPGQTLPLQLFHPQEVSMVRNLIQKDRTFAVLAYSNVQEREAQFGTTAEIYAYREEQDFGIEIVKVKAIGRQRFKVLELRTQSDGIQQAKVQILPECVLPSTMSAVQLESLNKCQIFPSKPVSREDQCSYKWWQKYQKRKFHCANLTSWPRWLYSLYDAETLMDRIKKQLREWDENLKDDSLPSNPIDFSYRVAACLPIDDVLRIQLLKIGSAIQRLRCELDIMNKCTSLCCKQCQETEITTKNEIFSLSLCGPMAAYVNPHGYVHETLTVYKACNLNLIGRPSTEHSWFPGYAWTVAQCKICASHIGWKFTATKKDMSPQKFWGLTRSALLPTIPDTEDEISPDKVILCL
Sequence of IKZF1 (Q16531 2-1140 partner): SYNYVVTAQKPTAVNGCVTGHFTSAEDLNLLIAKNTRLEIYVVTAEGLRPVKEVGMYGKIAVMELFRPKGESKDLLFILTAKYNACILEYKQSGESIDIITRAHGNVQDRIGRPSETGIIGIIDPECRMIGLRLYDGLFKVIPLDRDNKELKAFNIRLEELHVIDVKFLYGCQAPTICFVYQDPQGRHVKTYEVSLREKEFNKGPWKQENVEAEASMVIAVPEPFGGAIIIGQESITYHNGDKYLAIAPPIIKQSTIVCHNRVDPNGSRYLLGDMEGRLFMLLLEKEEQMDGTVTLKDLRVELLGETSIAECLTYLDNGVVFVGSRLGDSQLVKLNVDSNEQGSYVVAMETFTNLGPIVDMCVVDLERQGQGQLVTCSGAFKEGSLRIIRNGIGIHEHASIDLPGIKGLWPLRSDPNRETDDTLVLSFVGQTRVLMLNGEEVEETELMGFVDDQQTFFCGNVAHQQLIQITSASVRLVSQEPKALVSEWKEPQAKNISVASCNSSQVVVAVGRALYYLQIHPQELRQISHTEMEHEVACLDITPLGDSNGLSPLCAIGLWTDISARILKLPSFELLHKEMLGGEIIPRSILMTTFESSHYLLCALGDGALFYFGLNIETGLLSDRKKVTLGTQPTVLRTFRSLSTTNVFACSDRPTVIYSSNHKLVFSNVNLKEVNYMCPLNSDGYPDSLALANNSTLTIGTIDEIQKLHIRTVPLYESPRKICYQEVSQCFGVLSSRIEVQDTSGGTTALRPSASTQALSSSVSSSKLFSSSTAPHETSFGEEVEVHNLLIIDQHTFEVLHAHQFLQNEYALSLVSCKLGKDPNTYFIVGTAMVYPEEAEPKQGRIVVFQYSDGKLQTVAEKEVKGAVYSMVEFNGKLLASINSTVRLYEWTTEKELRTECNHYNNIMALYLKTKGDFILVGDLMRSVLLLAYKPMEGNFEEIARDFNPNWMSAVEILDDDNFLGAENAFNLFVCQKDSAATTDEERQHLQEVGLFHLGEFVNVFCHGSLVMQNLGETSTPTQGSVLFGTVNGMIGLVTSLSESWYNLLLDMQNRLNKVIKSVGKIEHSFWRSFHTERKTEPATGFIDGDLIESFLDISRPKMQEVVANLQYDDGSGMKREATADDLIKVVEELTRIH
Description: In Vitro IKZF1 HiBit Assay
The HiBiT protein tagging system was applied to modified Cells: modified HEK293T Flp-in-HiBiT-IKZF1 stable cell line (polyclone) via a CRISPR/Cas9-mediated insertion of the HiBiT peptide tag (Promega™) to the N-terminus of the […] gene locus (Neon™ transfection system).
25 nL of diluted compound is transferred to assay plates (Corning3571) using ECHO550, the final DMSO concentration @ 0.1%. The cells are seeded in 3000/25 μL/well to compound plates. The plates are incubated for 6 hrs in TC incubator. The amount of Nano-Glo® HiBiT lytic reagent needed to perform the desired experiments is calculated. The Nano-Glo® HiBiT lytic reagent is brought to room temperature. The LgBiT protein is diluted to 1:100 and the Nano-Glo® HiBiT lytic substrate is brought to 1:50 into an appropriate volume of room temperature Nano-Glo® HiBiT lytic buffer. 15 μL of the detection reagent (or without LgBiT) is dispensed to corresponding well according to the layout. The plate is shaked for 10 mins at room temperature. After briefly centrifuge, the plateis read on Envision. At the indicated timepoints, the Nano-Glo® HiBiT lytic detection system (Promega™) was utilized for detecting bioluminescence of the HiBiT tag in treated cells: abundance of the tag is proportionate to the level of luminescence. Following normalization to DMSO, dose-response curves were plotted (GraphPad Prism) to determine the concentration points at which 50% of HiBiT-Ikaros degradation was achieved by each compound. The extent of degradation (range of luminescence) from the highest to lowest concentration points was calculated to determine the Dmax.
as §1

Sequence of IKZF2 (Q9UKS7 whole entry): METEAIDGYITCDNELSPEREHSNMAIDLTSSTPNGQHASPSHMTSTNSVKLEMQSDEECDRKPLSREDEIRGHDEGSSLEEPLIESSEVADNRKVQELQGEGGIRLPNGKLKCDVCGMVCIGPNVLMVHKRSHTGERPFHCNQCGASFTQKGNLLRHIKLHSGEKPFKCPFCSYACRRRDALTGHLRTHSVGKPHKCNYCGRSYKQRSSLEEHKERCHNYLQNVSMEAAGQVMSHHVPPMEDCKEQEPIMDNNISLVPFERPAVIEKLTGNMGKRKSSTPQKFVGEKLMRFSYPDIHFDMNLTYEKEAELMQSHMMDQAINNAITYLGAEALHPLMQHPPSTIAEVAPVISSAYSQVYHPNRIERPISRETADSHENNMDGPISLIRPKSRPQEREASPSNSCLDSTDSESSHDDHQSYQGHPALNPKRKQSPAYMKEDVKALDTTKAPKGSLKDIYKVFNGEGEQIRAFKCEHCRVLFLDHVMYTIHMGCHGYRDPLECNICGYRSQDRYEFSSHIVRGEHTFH
Sequence of IKZF2 (Q96SW2 whole entry): as the sequence (Q96SW2 whole entry) above
Sequence of IKZF2 (Q16531 2-1140 partner): as the sequence (Q16531 2-1140 partner) above

Row | SMILES | DC50 (IKZF2) | Dmax (IKZF2) | DC50 (IKZF1) | Dmax (IKZF1)
1 | O=C1CCC(N2Cc3cc(-c4cc(CN5CCCC5)c5c(C(F)(F)F)n[nH]c5n4)ccc3C2=O)C(=O)N1 (centres unmarked) [Example 134, 3-(1-oxo-5-(4-(pyrrolidin-1-ylmethyl)-3-(trifluoromethyl)-1H-pyrazolo[3,4-b]pyridin-6-yl)isoindolin-2-yl) piperidine-2,6-dione] | 1 to 10 nM | > 80% | > 10000 nM | < 20%
2 | O=C1CCC(N2Cc3cc(-c4cc(CN5CC(O)C5)c5ccn(C6CC6)c5n4)ccc3C2=O)C(=O)N1 (centres unmarked) [Example 135, 3-(5-(1-cyclopropyl-4-((3-hydroxyazetidin-1-yl)methyl)-1H-pyrrolo[2,3-b]pyridin-6-yl)-1-oxoisoindolin-2-yl) piperidine-2,6-dione] | 1 to 10 nM | > 80% | > 10000 nM | < 20%
3 | CS(=O)(=O)CCn1ccc2c(CN3CCCC3)cc(-c3ccc4c(c3)CN(C3CCC(=O)NC3=O)C4=O)nc21 (centres unmarked) [Example 136, 3-(5-(1-(2-(methylsulfonyl)ethyl)-4-(pyrrolidin-1-ylmethyl)-1H-pyrrolo[2,3-b]pyridin-6-yl)-1-oxoisoindolin-2-yl) piperidine-2,6-dione] | 10 to 100 nM | 20 to 40% | > 10000 nM | < 20%
4 | Cn1nc(N)c2nc(-c3ccc4c(c3)CN(C3CCC(=O)NC3=O)C4=O)cc(CN3CCCC3)c21 (centres unmarked) [Example 183, 3-(5-(3-amino-1-methyl-7-(pyrrolidin-1-ylmethyl)-1H-pyrazolo[4,3-b]pyridin-5-yl)-1-oxoisoindolin-2-yl) piperidine-2,6-dione] | 1 to 10 nM | > 80% | 10 to 100 nM | 40 to 60%
5 | O=C1CCC(N2Cc3cc(-c4cc(CN5CCCC5)c5[nH]nc(C6CC6)c5n4)ccc3C2=O)C(=O)N1 (centres unmarked) [Example 202, 3-(5-(3-cyclopropyl-7-(pyrrolidin-1-ylmethyl)-1H-pyrazolo[4,3-b]pyridin-5-yl)-1-oxoisoindolin-2-yl) piperidine-2,6-dione] | 1 to 10 nM | > 80% | 1 to 10 nM | 40 to 60%
6 | O=C1CCC(N2Cc3cc(-c4cc(CN5CCCC5)c5nccc(N6CCC6)c5n4)ccc3C2=O)C(=O)N1 (centres unmarked) [Example 243, 3-(5-(8-(azetidin-1-yl)-4-(pyrrolidin-1-ylmethyl)-1,5-naphthyridin-2-yl)-1-oxoisoindolin-2-yl) piperidine-2,6-dione] | 10 to 100 nM | 60 to 80% | 100 to 1000 nM | 20 to 40%
7 | O=C1CCC(N2Cc3cc(-c4cc(CN5CCCC5)c5nccc(C6CCC6)c5n4)ccc3C2=O)C(=O)N1 (centres unmarked) [Example 247, 3-(5-(8-cyclobutyl-4-(pyrrolidin-1-ylmethyl)-1,5-naphthyridin-2-yl)-1-oxoisoindolin-2-yl) piperidine-2,6-dione] | 10 to 100 nM | 40 to 60% | > 10000 nM | < 20%

Continued, values first:

Row | DC50 (IKZF2) | Dmax (IKZF2) | DC50 (IKZF1) | Dmax (IKZF1) | SMILES
8 | 1 to 10 nM | > 80% | 10 to 100 nM | 20 to 40% | CC(C)C1CN(Cc2cc(-c3ccc4c(c3)CN(C3CCC(=O)NC3=O)C4=O)nc3[nH]ccc23)CC1O (centres unmarked) [Example 137, 3-(5-(4-((3-hydroxy-4-isopropylpyrrolidin-1-yl)methyl)-1H-pyrrolo[2,3-b]pyridin-6-yl)-1-oxoisoindolin-2-yl) piperidine-2,6-dione]
9 | 1 to 10 nM | > 80% | 100 to 1000 nM | 20 to 40% | CC(C)CC1CN(Cc2cc(-c3ccc4c(c3)CN(C3CCC(=O)NC3=O)C4=O)nc3[nH]ccc23)CC1O (centres unmarked) [Example 138, 3-(5-(4-((3-hydroxy-4-isobutylpyrrolidin-1-yl)methyl)-1H-pyrrolo[2,3-b]pyridin-6-yl)-1-oxoisoindolin-2-yl) piperidine-2,6-dione]
10 | 10 to 100 nM | 60 to 80% | > 10000 nM | < 20% | CNC(=O)Cn1ccc2c(CN3CCCC3)cc(-c3ccc4c(c3)CN(C3CCC(=O)NC3=O)C4=O)nc21 (centres unmarked) [Example 150, 2-(6-(2-(2,6-dioxopiperidin-3-yl)-1-oxoisoindolin-5-yl)-4-(pyrrolidin-1-ylmethyl)-1H-pyrrolo[2,3-b]pyridin-1-yl)-N-methylacetamide]
11 | 10 to 100 nM | > 80% | 100 to 1000 nM | 20 to 40% | O=C1CCC(N2Cc3cc(-c4cc(CN5CC(CO)C5)c5ccn(C6CC6)c5n4)ccc3C2=O)C(=O)N1 (centres unmarked) [Example 152, 3-(5-(1-cyclopropyl-4-((3-(hydroxymethyl)azetidin-1-yl)methyl)-1H-pyrrolo[2,3-b]pyridin-6-yl)-1-oxoisoindolin-2-yl) piperidine-2,6-dione]
12 | < 1 nM | > 80% | 10 to 100 nM | 40 to 60% | CC(C)CC1CCN(Cc2cc(-c3ccc4c(c3)CN(C3CCC(=O)NC3=O)C4=O)nc3[nH]ccc23)C1 (centres unmarked) [Example 153, 3-(5-(4-((3-isobutylpyrrolidin-1-yl)methyl)-1H-pyrrolo[2,3-b]pyridin-6-yl)-1-oxoisoindolin-2-yl) piperidine-2,6-dione]
13 | 10 to 100 nM | 40 to 60% | > 10000 nM | < 20% | Cc1cc(-c2ccc3c(c2)CN(C2CCC(=O)NC2=O)C3=O)nc2oc(CN3CCCC3)nc12 (centres unmarked) [Example 198, 3-(5-(7-methyl-2-(pyrrolidin-1-ylmethyl)oxazolo [5,4-b]pyridin-5-yl)-1-oxoisoindolin-2-yl) piperidine-2,6-dione]
14 | 10 to 100 nM | 40 to 60% | > 10000 nM | < 20% | O=C1CCC(N2Cc3cc(-c4cc(CN5CCCC5)c5cccc(C6CCC6)c5n4)ccc3C2=O)C(=O)N1 (centres unmarked) [Example 241, 3-(5-(8-cyclobutyl-4-(pyrrolidin-1-ylmethyl)quinolin-2-yl)-1-oxoisoindolin-2-yl) piperidine-2,6-dione]
15 | 10 to 100 nM | 40 to 60% | > 10000 nM | < 20% | O=C1CCC(N2Cc3cc(-c4cc(CN5CCCC5)c5nccc(NC6CC6)c5n4)ccc3C2=O)C(=O)N1 (centres unmarked) [Example 244, 3-(5-(8-(cyclopropylamino)-4-(pyrrolidin-1-ylmethyl)-1,5-naphthyridin-2-yl)-1-oxoisoindolin-2-yl) piperidine-2,6-dione]
16 | 10 to 100 nM | 60 to 80% | > 10000 nM | < 20% | O=C1CCC(N2Cc3cc(-c4cc(CN5CCCC5)c5nccc(OC6COC6)c5n4)ccc3C2=O)C(=O)N1 (centres unmarked) [Example 251, 3-(5-(8-(oxetan-3-yloxy)-4-(pyrrolidin-1-ylmethyl)-1,5-naphthyridin-2-yl)-1-oxoisoindolin-2-yl) piperidine-2,6-dione]
17 | 10 to 100 nM | 40 to 60% | > 10000 nM | < 20% | O=C1CCC(N2Cc3cc(-c4cc(CN5CCCC5C(F)F)c5ccn(C6COC6)c5n4)ccc3C2=O)C(=O)N1 (centres unmarked) [Example 252, 3-(5-(4-((2-(difluoromethyl)pyrrolidin-1-yl)methyl)-1-(oxetan-3-yl)-1H-pyrrolo[2,3-b]pyridin-6-yl)-1-oxoisoindolin-2-yl) piperidine-2,6-dione]
